# According to ChEMBL document CHEMBL4219180, “Dibenzofuran, dibenzothiophene and N-methyl carbazole tethered 2-aminothiazoles and their cinnamamides as potent inhibitors of Mycobacterium tuberculosis” (Bioorg Med Chem Lett, 2018):
# Key:
# [1] = system: Mycobacterium tuberculosis; experiment: Antimycobacterial activity against Mycobacterium tuberculosis H37Rv ATCC 27294 after 28 days by agar dilution method; format: functional; conditions: H37Rv ATCC 27294, 672 h
# [2] = Growth inhibition of HEK293T cells at 50 ug/ml after 72 hrs by MTT assay; format: cell-based, HEK-293T; conditions: human, read-out: GI
# [3] = system: Mycobacterium tuberculosis; experiment: Antimycobacterial activity against Mycobacterium tuberculosis; format: functional
Compound,MIC [1],"inhibition at 72 h, 50 ug/ml [2]",MIC [3]
Cn1c2ccccc2c2cc(-c3csc(NC(=O)/C=C/c4ccccc4)n3)ccc21,50 µg/mL,14.3%,
Cc1ccc(/C=C/C(=O)Nc2nc(-c3ccc4oc5ccccc5c4c3)cs2)cc1,50 µg/mL,51.3%,
O=C(/C=C/c1ccc(Br)cc1)Nc1nc(-c2ccc3oc4ccccc4c3c2)cs1,12.5 µg/mL,68.6%,
O=C(/C=C/c1ccc(Br)cc1)Nc1nc(-c2ccc3sc4ccccc4c3c2)cs1,6.25 µg/mL,28.3%,
Cc1ccc(/C=C/C(=O)Nc2nc(-c3ccc4c(c3)c3ccccc3n4C)cs2)cc1,25 µg/mL,19.4%,
O=C(/C=C/c1ccccc1)Nc1nc(-c2ccc3oc4ccccc4c3c2)cs1,50 µg/mL,52.6%,
CC(C)c1ccc(/C=C/C(=O)Nc2nc(-c3ccc4sc5ccccc5c4c3)cs2)cc1,0.78 µg/mL,43.1%,
Nc1nc(-c2ccc3oc4ccccc4c3c2)cs1,1.56 µg/mL,48.1%,
Nc1nc(-c2ccc3sc4ccccc4c3c2)cs1,1.56 µg/mL,56.7%,
Cn1c2ccccc2c2cc(-c3csc(NC(=O)/C=C/c4ccc(F)cc4)n3)ccc21,50 µg/mL,23.8%,
O=C(/C=C/c1ccc(F)cc1)Nc1nc(-c2ccc3oc4ccccc4c3c2)cs1,50 µg/mL,36.8%,
CC(C)c1ccc(/C=C/C(=O)Nc2nc(-c3ccc4oc5ccccc5c4c3)cs2)cc1,6.25 µg/mL,42.2%,
Cn1c2ccccc2c2cc(-c3csc(NC(=O)/C=C/c4ccc(Br)cc4)n3)ccc21,0.78 µg/mL,12.1%,
NNC(=O)c1ccncc1 [ISONIAZID],0.1 µg/mL,,
Cc1ccc(/C=C/C(=O)Nc2nc(-c3ccc4sc5ccccc5c4c3)cs2)cc1,50 µg/mL,48%,
O=C(/C=C/c1ccc(F)cc1)Nc1nc(-c2ccc3sc4ccccc4c3c2)cs1,0.78 µg/mL,57.2%,
Cn1c2ccccc2c2cc(-c3csc(N)n3)ccc21,12.5 µg/mL,38.1%,
O=C(/C=C/c1ccccc1)Nc1nc(-c2ccc3sc4ccccc4c3c2)cs1,50 µg/mL,68.6%,
CC(C)c1ccc(/C=C/C(=O)Nc2nc(-c3ccc4c(c3)c3ccccc3n4C)cs2)cc1,50 µg/mL,62%,
NC(=O)c1cnccn1 [PYRAZINAMIDE],50 µg/mL,,
CC(=O)C1=C(O)C=C2Oc3c(C(C)=O)c(O)c(C)c(O)c3C2(C)C1=O (stereo not given),,,12.5 µg/mL
CC[C@@H](CO)NCCN[C@@H](CC)CO [ETHAMBUTOL],3.13 µg/mL,,
